Reference: patent US20090030079A1 (priority 2007, published 2009)
Read-outs that look alike come from different tables or passages of the source.

How the values were obtained:
[1] = Cd^2+, cited from earlier work
[2] = Decorporation of Polonium-210: tissue distribution of IV administered Po-210 in rats; type: in vivo, Wistar-Han rats; details: for % Reduction of Po-210 vs Po-210 Control / effect on polonium-210 level (in words): oral 15 mg/kg x 5, day 6; for Po-210 dpm/gm for animal group: single IV Po-210 approx. 90 kBq, oral 15 mg/kg every 24 h x 5, sacrifice day 6
Description: The digested sample was diluted with distilled water to reduce the nitric acid to approximately 1 M. An aliquot of the resulting solution was added to Ultima Gold XR liquid scintillation cocktail (Packard BioScience, Meriden, Conn.), counted and corrected for possible quenching.

[3] = Bi^3+, cited from earlier work
[4] = Decorporation of Cobalt-60: tissue distribution and excretion of IV administered Co-60 in rats; type: in vivo, Male Wistar-Han rats; details: single oral dose 15 mg/kg; for Co-60 Dose % for animal group: single IV Co-60 14 KBq, 48 hr post exposure
Description: Materials. Chloride stock solution of ^60Co as ^60CoCl2 was diluted with sterile saline solution to adjust to the desired activity and used for the IV dosing. Activity of the dosing solution was determined using automated Wallac 1480 (Perkin Elmer) gamma counter equipped with 3 inch NaI(TI) crystal shielded detector.
Animals. Male Wistar-Han rats were obtained from Charles River Breeding Laboratory (Raleigh, N.C.) with indwelling jugular vein cannula. Animals were provided food and water ad libitum during acclimatization. The light cycle was 12 hour light/12 hour dark and relative humidity and temperature maintained at 50±15% and 22±2° C. All animal use protocols were approved by the Institutional Animal Care and Use Committee at Battelle, Pacific Northwest Division and studies were performed according to the “Guide for the Care and Use of Laboratory Animals” (National Research Council, Washington D.C., 1996).
Dosing regimen. Animals were restricted from food overnight prior to exposure. At the time of exposure, groups of animals (N=6) received a single intravenous (IV) injection (0.2 mL) of ^60Co solution at 14.0±0.6 KBq dose in sterile saline via an indwelling jugular vein cannula. […] The actual doses delivered were calculated based on the individual animal weights (Table 3). One group of animals was dosed with the radionuclide without subsequent administration of the chelation material to serve as control group. Following dosing, animals were placed in Nalgene metabolism cages for separate collection of urine and feces. […] Animals were sacrificed 48 hr post radionuclide administration. At sacrifice, blood and tissues (liver, kidney, spleen, gastrointestinal tract, muscle, bone, bone marrow, and lung) were collected, weighed and counted for radioactivity using a Wallac 1480 gamma counter. Gamma count data were normalized to percent administered dose after adjusting the grams of tissue collected for total organ mass.
Data statistical evaluation. Each data group was subjected to Dixon's Q-test to evaluate for potential outliers. In this test Q parameter of 0.625 (N=6, 95% confidence level, a=0.05) was used (1). For each tissue, a preliminary F-test (95% confidence level, a=0.05) for the equality of variances of the control and each treatment group was performed using Excel software. If the calculated probability p value was less than 0.05, the variances were assumed to be not equal. Based on this information, “T-test: Two-Sample Assuming Unequal Variances” or “T-test: Two-Sample Assuming Equal Variances” (95% confidence level, a=0.05) was performed using Excel software. The calculated p-value less than 0.05 provides evidence to reject the null hypothesis of equal means. The obtained statistical parameters listed in Table 4 served as guidelines for data evaluation (Table 5; calculation assumes that total skeleton, blood, or muscle is approximately 7.3, 6, or 40% of the body weight of the animal, respectively; Co-60 in skeleton is calculated based on the femur data—R. P. Brown, M. D. Delp, S. L. Undstedt, L. R. Rhomberg, and R. P. Beliles, Physiological Parameter Values for Physiologically Based Pharmacokinetic Models. Toxicology and Industrial Health, 1997, 13(4): 407-484).

[5] = Ag^1+; cited from earlier work
[6] = Mn^2+; cited from earlier work
[7] = Ni^2+, cited from earlier work
[8] = Pb^2+, cited from earlier work
[9] = Hg^2+, cited from earlier work
[10] = Co^2+, cited from earlier work
[11] = Zn^2+, cited from earlier work
[12] = Cu^2+, cited from earlier work
[13] = Fe^2+; cited from earlier work

## NCCNCCNCCN [Trientine, N,N′-bis (2-aminoethyl)-1,2-ethanediamine]
[1]
  binding stability constant (log K): 10.6
[1]; listed as trientine
  binding stability constant (log K): fairly strong
[2]; Blood
  % Reduction of Po-210 vs Po-210 Control: 0%
  Po-210 dpm/gm for animal group: 33273 ± 7289 dpm/gm
[2]; Femur
  Po-210 dpm/gm for animal group: 22415 ± 2148 dpm/gm
[2]; Kidney
  % Reduction of Po-210 vs Po-210 Control: 0%
  Po-210 dpm/gm for animal group: 187883 ± 15839 dpm/gm
[2]; Liver
  % Reduction of Po-210 vs Po-210 Control: 14%
  effect on polonium-210 level (in words): reduced
  Po-210 dpm/gm for animal group: 120883 ± 21221 dpm/gm
[2]; Lung
  % Reduction of Po-210 vs Po-210 Control: 11%
  Po-210 dpm/gm for animal group: 74512 ± 22281 dpm/gm
[2]; Spleen
  Po-210 dpm/gm for animal group: 269303 ± 47082 dpm/gm
[2]; femur
  % Reduction of Po-210 vs Po-210 Control: 15%
  effect on polonium-210 level (in words): reduced
[2]; spleen
  % Reduction of Po-210 vs Po-210 Control: 36%
  effect on polonium-210 level (in words): reduced
[3]
  binding stability constant (log K): 21.9
[3]; listed as trientine
  binding stability constant (log K): very strongly
[4]; Blood
  Co-60 Dose % for animal group: 0.18 ± 0.08%
[4]; Blood, 48 hr
  % Reduction of Co-60 vs Co-60 Control: −98%
[4]; Bone Marrow
  Co-60 Dose % for animal group: Below detection
[4]; Intestine
  Co-60 Dose % for animal group: 0.98 ± 0.23%
[4]; Intestine, 48 hr
  % Reduction of Co-60 vs Co-60 Control: 44%
[4]; Kidney
  Co-60 Dose % for animal group: 0.62 ± 0.04%
[4]; Kidney, 48 hr
  % Reduction of Co-60 vs Co-60 Control: 13%
[4]; Liver
  Co-60 Dose % for animal group: 2.00 ± 0.47%
[4]; Liver, 48 hr
  % Reduction of Co-60 vs Co-60 Control: 0%
[4]; Lung
  Co-60 Dose % for animal group: 0.13 ± 0.05%
[4]; Lung, 48 hr
  % Reduction of Co-60 vs Co-60 Control: 0%
[4]; Muscle
  Co-60 Dose % for animal group: 1.13 ± 0.24%
[4]; Muscle, 48 hr
  % Reduction of Co-60 vs Co-60 Control: 0%
[4]; Spleen
  Co-60 Dose % for animal group: 0.058 ± 0.013%
[4]; Spleen, 48 hr
  % Reduction of Co-60 vs Co-60 Control: 0%
[4]; Stomach
  Co-60 Dose % for animal group: 0.072 ± 0.012%
[4]; Stomach, 48 hr
  % Reduction of Co-60 vs Co-60 Control: 0%
[4]; Total Skeleton (from femur data)
  Co-60 Dose % for animal group: 0.41 ± 0.22%
[4]; Total Skeleton, 48 hr
  % Reduction of Co-60 vs Co-60 Control: 35%
[4]; 48 hr
  effect on blood levels of Co-60: elevated
[4]; day 1 post exposure
  effect on fecal elimination of Co-60: decreased
  effect on urinary elimination of Co-60: noticeably enhanced
[4]; monitored 2 days, not statistically significant, 15 mg/kg
  effect on total Co-60 excretion (urine and feces): appeared to accelerate
[5]
  binding stability constant (log K): 7.5
[6]
  binding stability constant (log K): 4.90
[7]
  binding stability constant (log K): 13.8
[7]; listed as trientine
  binding stability constant (log K): very strongly
[8]
  binding stability constant (log K): 10.4
[8]; listed as trientine
  binding stability constant (log K): fairly strong
[9]
  binding stability constant (log K): 24.5
[9]; listed as trientine
  binding stability constant (log K): very strongly
[10]
  binding stability constant (log K): 10.9
[10]; listed as trientine
  binding stability constant (log K): fairly strong
[11]
  binding stability constant (log K): 12
[11]; listed as trientine
  binding stability constant (log K): fairly strong
[12]
  binding stability constant (log K): 20.05 (Cu^2+)
[12]; listed as trientine
  binding stability constant (log K): very strongly
[13]
  binding stability constant (log K): 7.76
